From patent publication US7482329B2, “Single domain TDF-related compounds and analogs thereof” (Thrasos Therapeutics, priority 2002, dated 2009)
“Also recorded” adds a separate entry of the source. Where a SMILES comes first, the peptide text is derived from it.

B1: TDF-1: TDF-1 (BMP-7 or OP-1), bone morphogenetic protein-7; unlabeled control ligand in the binding and cell assays (protein)
chain: STGSKQRSQNRSKTPKNQEALRMANVAENSSSDQRQACKKHELYVSFRDLGWQDWIIAPEGYAAYYCEGECAFPLNSYMNATNHAIVQTLVHFINPETVPKPCCAPTQLNAISVLYFDDSSNVILKKYRNMVVRACGCH

System: IL-6 in HK2 human transformed kidney proximal tubule cells
Test: IL-6 level in HK-2 cell medium after TNF-alpha stimulation (ELISA)
Assay type: cell-based
Details: for effect on level of IL-6 in HK2 cell medium: after TNF-alpha inflammatory stimulation, FIG. 6, FIG. 10
Method: The immortalized PTEC-derived HK-2 (Human Kidney-2) cells (ATCC number CRL-2190) were grown in serum-free keratinocyte medium (GIBCO number 17005-042) supplemented with epidermal growth factor (EGF: 5 ng/mL) and bovine pituitary extract (40 ug/mL) for 48 hours as described previously (Ryan et al (1994) Kidney International 45:48-57). Cells were transferred to 24-well plates at a density of 3×10^5 cells per well. After 24 hours, cells were incubated with fresh medium containing TNF-alpha (5 ng/mL) for 20 hours. Controls received medium alone. Then cells were washed twice with fresh culture medium and further incubated with culture medium alone (medium control, and TNF control wells) or TDF-1 at three different concentrations (40, 200 or 1000 ng/mL) or TDFRP compounds at three different concentrations (4, 20 or 100 uM) for sixty hours. During incubation, cells were kept in a 5% CO2 humid atmosphere at 37° C. At the end of the incubation, the media were removed and stored frozen until assayed. The concentrations of IL-6 and sICAM-in culture supernatants were measured by specific ELISA.
Dilute the capture antibody to the working concentration in PBS, pH 7.4 without carrier protein. Add 61 uL of stock antibody (360 ug/mL) to 10.939 mL of PBS, gently vertex. Immediately coat a 96 well microplate (Immulon 4 HBX) with 100 uL per well of the diluted capture antibody. Seal the plate and incubate it overnight in cold (4° C.). (PBS: 8.1 mM Na2HPO4, 1.5 mM KH2PO4, 137 mM NaCl, 2.7 mM KCl, pH 7.4, 0.2 um filtered). Next day empty the wells and wash the wells three times, each time using 340 uL of wash buffer per well. (wash buffer: PBS, pH 7.4 containing 0.05% Tween-20).
Prepare blocking buffer, 35 mL per plate. To prepare blocking buffer, add 0.35 grams of BSA and 1.75 grams of sucrose to 35 mL of PBS, pH 7.4, and mix the contents gently. Add 300 uL of blocking buffer to each well and incubate the plate for a minimum of 1 hour at room temperature. Empty the wells and wash wells three times, each time using 340 uL of wash buffer per well.
Prepare a 8 point standard curve using 2-fold serial dilutions in reagent diluent. Dilute stock standard, recombinant IL-6, 70 ng/mL to an initial concentration of 2400 ng/mL in reagent diluent. Then further dilute the standard to a working range, 1200, 600, 300, 150, 75, 37.5, 18.75 and 9.375 ng/mL using reagent diluent. (to prepare reagent diluent, add 0.4 grams of BSA to 40 mL of PBS, pH 7.4 and gently vertex). Also dilute 24 uL of each sample medium (from HK-2 cell cultures) with 376 uL of reagent diluent. Add 100 uL of standard or sample per well, seal the plate and incubate it overnight in cold (4° C.).
Next day, empty the wells and wash wells three times, each time using 340 uL of wash buffer per well. […]

Molecule	EC50 (HK2 cells, 5 ng/ml TNF-alpha stimulus, FIG. 6, read-out: ED50, lowering of IL-6 level)	effect on level of IL-6 in HK2 cell medium
CC(C)C[C@H](NC(=O)[C@@H](NC(=O)[C@H](CC(N)=O)NC(=O)[C@H](CO)NC(=O)[C@H](CO)NC(=O)[C@H](CC(=O)O)NC(=O)[C@H](CC(=O)O)NC(=O)[C@H](Cc1ccccc1)NC(=O)[C@H](Cc1ccc(O)cc1)NC(=O)[C@@H](N)CS)C(C)C)C(=O)N[C@@H](CS)C(=O)N[C@@H](CCCCN)C(=O)N[C@@H](CCCCN)C(=O)N[C@@H](Cc1ccc(O)cc1)C(=O)N[C@@H](CCCNC(=N)N)C(=O)N[C@@H](CO)C(=O)O [SEQ ID NO:45, CYFDDSSNVLCKKYRS] (H-CYFDDSSNVLCKKYRS-OH)	~10 µM	reduces the level of cellular inflammation marker IL-6; also recorded: lowers the level of IL-6 in a dose dependent manner
B1	–	lowers the level of IL-6 in a dose dependent manner; also recorded: brings the IL-6 level down below the basal level
